Test system: MAG biosynthesis (DGL)
Experiment: THL oral gavage: levels of MAGs in jejunum mucosa, lung and plasma
Type: in vivo, mouse
Protocol: Adult C57BL/6J male mice were food-deprived for 24 h prior to harvest with ad libitum access to water. To prevent coprophagia, animals were maintained on elevated wire-bottom cages for a 72-hour acclimation period and during the 24-hour food deprivation. One hour prior to harvest, mice received an oral gavage (100 μL of 10 mg/mL) of the DGL inhibitor, THL, in polyethylene glycol (PEG) or PEG alone as control. Jejunum intestinal epithelium and lungs were harvested as described above (see section “Tissue Harvest and Preparation for Enzyme Assays”).
Frozen tissue samples were weighed and homogenized in 1.0 mL of methanol containing the internal standards [^2H5]-2-AG (500 pmol), [^2H4]-AEA (1 pmol), and [^2H4]-OEA (10 pmol). Lipids were extracted using chloroform (2.0 mL) prior to being washed with 1.0 mL 0.2-micron ultra-purified water. Following centrifugation (1,500 × g, 15 min, 4°C), the lower organic phase was collected and dried under N2 steam (99.998% pure). A second chloroform wash (1.0 mL) was then performed followed by another centrifugation (1,500 × g, 15 min, 4°C) and collection of the lower phase. Samples were reconstituted in 2.0 mL of chloroform and purified via open-bed silica gel column chromatography. Columns were washed with a 9:1 chloroform:methanol mixture to elute MAGs and FAEs for collection. Collected eluates were dried under N2 steam (99.998% pure) and resuspended in 0.2 mL of methanol:chloroform (1:1) prior to analysis via UPLC-MS/MS (see section “Quantitation of MAGs and FAEs”).
Data was acquired using equipment described above (see section “UPLC-MS/MS Detection of Analytes”) and using the elution protocol described above (see section “Quantitation of MAG Biosynthetic Enzyme Activity Assay Products”). Cone voltage and collision energy for each analyte are as follows, respectively: AEA = 30 v, 14 v; [^2H4]-AEA = 26 v, 16v; OEA = 28 v, 16 v; [^2H4]-OEA = 48 v, 14 v; DHEA = 30 v, 50 v; 2-AG (20:4) = 30 v, 12 v; [^2H5]-2-AG = 25 v, 44v; 2-DG (22:6) = 34 v, 14 v; 2-PG (16:0) = 18 v, 10 v; 2-OG (18:1) = 42 v, 10 v; 2-LG (18:2) = 30 v, 10 v. MS/MS detection was in positive ion mode and capillary voltage set at 0.1 kV. Extracted ion chromatograms were used to quantify AEA (m/z = 348.3 > 62.0), [^2H4]-AEA (m/z = 352.3 > 66.1), OEA (m/z = 326.4 > 62.1), [^2H4]-OEA (m/z = 330.4 > 66.0), DHEA (m/z = 372.3 > 91.0), 2-AG (m/z = 379.3 > 287.3), [^2H5]-2-AG (m/z = 384.3 > 93.4), 2-DG (m/z = 403.3 > 311.1), 2-PG (m/z = 331.3 > 239.3), 2-OG (m/z = 357.4 > 265.2), and 2-LG (m/z = 355.3 > 263.3). Quantitation occurred using a stable isotope dilution method to detect protonated adducts of the ions [M + H] + in MRM mode. Acyl migration is known to occur in many MAG species following silica-gel purification, therefore the sum of 1-AG and 2-AG, 1-PG and 2-PG, 1-OG and 2-OG, and 1-DG and 2-DG are reported ([Stella et al., 1997]). The established lower limit of quantitation (LLOQ: signal to noise ratio >10) for 2-AG, 2-DG, 2-PG, 2-OG, and 2-LG was 0.5 pmol. The LLOQ for AEA, OEA, and DHEA was 0.008 pmol.

[1] = THL 1 mg oral, 1 h prior to tissue harvest

CCCCCCCCCCC[C@@H](C[C@@H]1OC(=O)[C@H]1CCCCCC)OC(=O)[C@H](CC(C)C)NC=O [THL, tetrahydrolipstatin]
2-LG level in lung (THL 1 mg oral gavage 1 h prior to harvest, vehicle 0.51 ± 0.10): 1.13 ± 0.35 nmol/g | 2-DG level in lung (THL 1 mg oral gavage 1 h prior to harvest, vehicle 1.17 ± 0.07): 1.02 ± 0.07 nmol/g | 2-OG level in lung (THL 1 mg oral gavage 1 h prior to harvest, vehicle 1.81 ± 0.13): 2.25 ± 0.37 nmol/g | 2-OG level in plasma (THL 1 mg oral gavage 1 h prior to harvest, vehicle 2.71 ± 0.68): 1.53 ± 0.22 pmol/mL | 2-PG level in lung (THL 1 mg oral gavage 1 h prior to harvest, vehicle 3.15 ± 0.26): 2.51 ± 0.15 nmol/g | 2-AG level in lung (THL 1 mg oral gavage 1 h prior to harvest, vehicle 4.47 ± 0.44): 3.73 ± 0.37 nmol/g | 2-AG level in plasma (THL 1 mg oral gavage 1 h prior to harvest, vehicle 31.59 ± 3.93): 29.34 ± 2.18 pmol/mL | 2-DG level in plasma (THL 1 mg oral gavage 1 h prior to harvest, vehicle 44.25 ± 11.63): 32.82 ± 1.67 pmol/mL | 2-PG level in plasma (THL 1 mg oral gavage 1 h prior to harvest, vehicle 46.63 ± 4.97): 51.99 ± 9.87 pmol/mL | 2-LG level in plasma (THL 1 mg oral gavage 1 h prior to harvest, vehicle 156.32 ± 27.64): 105.12 ± 11.41 pmol/mL | effect on levels of MAGs in lung vs vehicle [1]: no significant changes | effect on plasma MAGs vs vehicle [1]: No significant changes | effect on levels of all MAGs in jejunum mucosa vs vehicle (THL 1 mg oral, 1 h prior to tissue harvest, 24 h food deprived mice): reduced | 2-DG level in jejunum mucosa (mice food deprived 24 h, THL 1 mg oral gavage 1 h prior to harvest, vehicle 7.53 ± 1.40): 0.85 ± 0.13 nmol/g | 2-PG level in jejunum mucosa (mice food deprived 24 h, THL 1 mg oral gavage 1 h prior to harvest, vehicle 13.52 ± 2.60): 4.91 ± 0.51 nmol/g | 2-AG level in jejunum mucosa (mice food deprived 24 h, THL 1 mg oral gavage 1 h prior to harvest, vehicle 45.81 ± 7.02): 8.04 ± 1.52 nmol/g | 2-OG level in jejunum mucosa (mice food deprived 24 h, THL 1 mg oral gavage 1 h prior to harvest, vehicle 100.71 ± 28.93): 5.56 ± 1.10 nmol/g | 2-LG level in jejunum mucosa (mice food deprived 24 h, THL 1 mg oral gavage 1 h prior to harvest, vehicle 194.08 ± 40.11): 24.61 ± 7.48 nmol/g
